Measurements published in US7033595B1, “Pseudotyped retroviruses and stable cell lines for their production” (priority 1998, dated 2006).

Tests used:
Assay type in all cases: cell-based
[1] = test system: Ross-River E2-E1 pseudotyped retrovirus
[2] = test system: VSV-G pseudotyped retrovirus
wild type MMLV = test system: wild type MMLV

SMILES | inhibition of transduction by Ross River glycoprotein-pseudotyped viruses [1] | inhibition of VSV-G pseudotyped retrovirus entry [2] | effect on wild type MMLV entry (wild type MMLV)
Cl.N [ammonium chloride] | dramatic inhibition | inhibit | –
CCN(CC)CCCC(C)Nc1ccnc2cc(Cl)ccc12 (centres unmarked) [chloroquine] | dramatic inhibition | inhibit | only partially affects
